From US5844001A, “Combination platinum chemotherapeutic/antiestrogen therapy for human cancers” (Research Development Foundation, priority 1994, dated 1998)
Like-named read-outs stand apart in the source and are kept apart here.

What was measured:
[1] = human, in vivo
Source text: (§5) Entry requirements included histologically documented melanoma, measurable disease, signed informed consent, and no anti-tumor therapy during the previous 4 weeks. Patients were required to have normal hematologic and renal function, an ECOG performance status of 0-2 and an estimated survival of at least 3 months. Patients with a previous history of deep venous thrombosis or pulmonary embolism were excluded.
(§6) Pre-treatment hydration consisted of 1 liter of 5% dextrose/0.45%saline containing 20 mEq of potassium chloride and 2 g magnesium sulfate administered over 4 hours. […] Patients were retreated every 3 weeks. On cycles where TAM was administered, 40 mg p.o. four doses per day were given on day 1 followed by 20 mg p.o. daily thereafter. The initial 7 patients were treated with a combination of lorazepam, metaclopramide, benadryl and dexamethasone to control nausea and vomiting. Subsequent patients received an ondansetron-based regimen.

[2] = system: UM-SCC-10B head and neck carcinoma cells; assay: Development of cisplatin resistance with or without tamoxifen, UM-SCC-10B (clonogenic assay); assay type: cell-based, human; conditions: for effect on development of cisplatin resistance: tamoxifen present during selection, in words
Protocol: (§1) The UM-SCC-10B and UM-SCC-5 cell lines were derived from human squamous cell carcinomas of the in head and neck region. Cells were cultured at 37° C. in humidified 5% CO2 in 150 cm^2 flasks (Corning, Corning, N.Y.) with RPMI 1640 medium (Mediatech Inc., Herndon, Va.) containing 10% fetal bovine serum (Gemini Bioproducts Inc., Calabasas, Calif.), 2 mM L-glutamine, 100 units/ml of penicillin and 100 μg/ml of streptomycin sulfate. The sensitivity of the UM-SCC-10B and UM-SCC-5 cell lines and their cDDP-resistant variants to cDDP, TAM and the combination of both agents was tested by colony forming assay. Single-cell suspension were plated into 60 mm tissue culture dishes (Corning) at 300 cells per dish. Following drug exposure, the cultures were washed twice with PBS to remove cDDP, 5 ml of fresh medium was added, and they were incubated for 13-15 days to allow formation of colonies. Colonies were fixed with methanol, stained with Giemsa stain for 60 minutes, and counted manually.
(§2) Cells were cultured in drug-free medium for two weeks prior to being tested for drug sensitivity.

[3] = system: UM-SCC-5 head and neck carcinoma cells; assay: Development of cisplatin resistance with or without tamoxifen, UM-SCC-5 (clonogenic assay); assay type: cell-based, human
Protocol: as §1, §2

[4] = system: UM-SCC-10B cells; assay: Colony forming assay, parental UM-SCC-10B; assay type: cell-based, human
Protocol: (§3) The UM-SCC-10B and UM-SCC-5 cell lines were derived from human squamous cell carcinomas of the in head and neck region. […] The sensitivity of the UM-SCC-10B and UM-SCC-5 cell lines and their cDDP-resistant variants to cDDP, TAM and the combination of both agents was tested by colony forming assay. Single-cell suspension were plated into 60 mm tissue culture dishes (Corning) at 300 cells per dish. […] Colonies were fixed with methanol, stained with Giemsa stain for 60 minutes, and counted manually.
(§4) Median effect analysis was used to assess the interaction between cDDP and TAM using a schedule of one hour exposure to cDDP and continuous exposure to TAM. After seeding the cells into 60 mm tissue culture dishes at 300 cells per dish in fresh medium and allowing 5 hours for them to attach, TAM was added. For the combined treatment, cDDP was added to the dishes 24 hours after seeding the cells. […] After incubation the dishes were washed twice with phosphate-buffered saline and fresh medium containing the appropriate concentration of TAM was added. In synergy experiments, dose-response curves for the single agents were initially generated. The extend of the combined treatment was then analyzed by the isobole method for a combination of cDDP and TAM from the equation

[5] = system: cell lines of human origin; assay: Synergy of TAM and DDP: timing and mechanism observations; assay type: cell-based
[6] = system: melanoma; conditions: 203 treated melanoma patients; cited from earlier work
[7] = system: UM-SCC-5 cells; assay: Colony forming assay, parental UM-SCC-5; assay type: cell-based, human
Protocol: as §3, §4

[8] = system: T-289 melanoma cells; assay: Development of DDP resistance with or without TAM, T-289 (colony formation); assay type: cell-based, human
[9] = Toxicities with DDP or DDP/TAM treatment (clinical trial); conditions: in words
Source text: as §5, §6

[10] = Steady-state plasma concentration of TAM; assay type: in vivo, human (patients); conditions: predicted from in vitro data
Protocol: The design of the study of Example 1 itself was biased against response and the response rate in other settings would be higher. […] Chronic administration of TAM at 10 mg p.o. twice a day produces steady-state plasma concentrations in the range of 0.29 μM. However, the in vitro data predicts that plasma concentrations of more than 0.5 μM will be necessary in DDP-resistant patients.

[11] = system: melanoma; assay: Clinical trial: tumor response to DDP alone, then TAM/DDP after DDP resistance; assay type: in vivo, human (patients)
Source text: A complete response was defined as the complete disappearance of all evidence of disease for at least 4 weeks. A partial response was a decrease in the mean diameter of the target lesion by 50% or more lasting at least 4 weeks. A mixed response was a decrease in the diameter of some target lesions of 50% or more while others remained stable or increased in size. A stable disease was defined as a <50% decrease or <25% increase in the size of target lesions for at least 2 months without the growth or appearance of other lesions. A progressive disease was defined as an increase in the size of target lesions by 25% or more.
Patients were retreated every 3 weeks. […] Subsequent patients received an ondansetron-based regimen.

[12] = Homo sapiens, read-out: IC50, continuous tamoxifen exposure
[13] = read-out: IC50, one hour exposure to cisplatin
[14] = number of patients, DDP n=24, TAM/DDP n=20

Cc1nccn1CC1CCc2c(c3ccccc3n2C)C1=O (centres unmarked) [ondonsetron, ondansetron]
nausea and vomiting [1]: markedly reduced nausea and vomiting

CC/C(=C(\c1ccccc1)c1ccc(OCCN(C)C)cc1)c1ccccc1 [tamoxifen]
reduction of slope of regression line by tamoxifen ([2]; UM-SCC-10B): more than 40%
effect on development of cisplatin resistance ([2]; UM-SCC-10B): delayed the emergence of cisplatin resistance significantly
effect on development of cisplatin resistance ([2]; UM-SCC-10B, listed as TAM): delay the development of DDP resistance
effect on slope for emergence of cisplatin resistance ([3]; UM-SCC-5, tamoxifen present during selection, in words): no effect
IC50 [4, 12]: 3.56 ± 0.41 µM
synergy with DDP when TAM is added after DDP ([5]; TAM added up to 48 hours after end of 1 hour DDP exposure): can produce synergy with DDP
effect of tamoxifen on known mechanisms of cisplatin resistance ([5]; drug uptake, glutathione or metallothionein levels, DNA intrastrand adduct formation or repair): not due to an effect of tamoxifen on the known mechanisms of cisplatin resistance
response rate, single agent TAM therapy [6]: 6%
IC50 [7, 12]: 3.22 ± 0.54 µM
effect on development of DDP resistance ([8]; T-289, TAM given concurrently, in words): delay the development of DDP resistance
nephrotoxicity [9]: uncommon and unaffected by the administration of TAM
toxicity on addition of TAM to single agent DDP [9]: No increased toxicity
nausea and vomiting ([9]; during hospitalization for ondansetron): did not increase nausea or vomiting
plasma concentration predicted necessary in DDP-resistant patients [10]: more than 0.5 μM

N.N.[Cl][Pt][Cl] [cisplatin, cis-diamminedichloroplatinum (II)]
IC50 ([2]; UM-SCC-10B selected in cisplatin, one hour cisplatin exposure, read-out: IC50 after the fifteenth selection): 40.1 ± 1.2 µM
IC50 ([3]; UM-SCC-5 selected in cisplatin, one hour cisplatin exposure, read-out: IC50 after the fifteenth selection): 20.1 ± 1.2 µM
IC50 [4, 13]: 6.5 ± 0.6 µM
IC50 [7, 13]: 7.2 ± 1.5 µM
time at which DDP resistance became apparent ([8]; T-289 selection): 200 days
duration of complete response ([11]; DDP alone): more than 15 months
duration of partial response (stable off treatment) ([11]; DDP alone, one patient): ≥ 6 months
time to progression of patient with partial response ([11]; DDP alone, the other patient): 4 months
Mixed Response ([11]; number of patients): 0 patients
Progressive Disease ([11]; number of patients): 19 patients
Stable Disease ([11]; number of patients): 2 patients
Complete Response [11, 14]: 1 patients
Partial Response [11, 14]: 2 patients
Complete Response ([11]; number of patients, DDP n=24, TAM/DDP n=20, listed as DDP): One
Progressive Disease ([11]; number of patients, listed as DDP): 17 patients
Complete Response (%) ([11]; percent of patients): 4%
Partial Response (%) ([11]; percent of patients): 8%
